Test results published in PubChem BioAssay (NCI).
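Dose response: 5 concentrations. Exposure: 48 h. Format: 96-well plates. Endpoint: linear interpolation; highest concentration if not reached. TGI denotes the concentration required for complete inhibition of growth.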

Key:
Assay in all cases: NCI tumour cell line growth inhibition, 48 h
MCF7 breast = system: MCF7 breast
PC-3 prostate = system: PC-3 prostate
MDA-N = system: MDA-N
KM12 colon = system: KM12 colon
NCI-H522 lung = system: NCI-H522 lung
T-47D breast = system: T-47D breast
NCI-H226 lung = system: NCI-H226 lung
NCI-H460 lung = system: NCI-H460 lung
MDA-MB-231 breast = system: MDA-MB-231 breast
HCC-2998 colon = system: HCC-2998 colon
DU-145 prostate = system: DU-145 prostate
RXF 393 renal = system: RXF 393 renal
MALME-3M melanoma = system: MALME-3M melanoma
SK-MEL-5 melanoma = system: SK-MEL-5 melanoma
CAKI-1 renal = system: CAKI-1 renal
IGROV1 ovarian = system: IGROV1 ovarian
HOP-62 NSCLC = system: HOP-62 NSCLC
HOP-92 NSCLC = system: HOP-92 NSCLC
U251 CNS = system: U251 CNS
OVCAR-8 ovarian = system: OVCAR-8 ovarian

SMILES	TGI (MCF7 breast)	TGI (PC-3 prostate)	TGI (MDA-N)	TGI (KM12 colon)	TGI (NCI-H522 lung)	TGI (T-47D breast)	TGI (NCI-H226 lung)	TGI (NCI-H460 lung)	TGI (MDA-MB-231 breast)	TGI (HCC-2998 colon)	TGI (DU-145 prostate)	TGI (RXF 393 renal)	TGI (MALME-3M melanoma)	TGI (SK-MEL-5 melanoma)	TGI (CAKI-1 renal)	TGI (IGROV1 ovarian)	TGI (HOP-62 NSCLC)	TGI (HOP-92 NSCLC)	TGI (U251 CNS)	TGI (OVCAR-8 ovarian)
CCOC(=O)/C=C/CC(C)(C)COC(C)=O	> 10000 nM	> 10000 nM	> 10000 nM	> 10000 nM	> 10000 nM	> 10000 nM	> 10000 nM	> 10000 nM	> 10000 nM	> 10000 nM	> 10000 nM	> 10000 nM	–	–	–	–	–	–	–	–
COc1ccc(C2C(C(=O)O)=C(CO)Oc3cc4c(cc32)OCO4)cc1 (stereo unspecified)	–	–	–	–	–	–	–	> 100000 nM	–	–	–	> 100000 nM	> 100000 nM	> 100000 nM	> 100000 nM	> 100000 nM	> 100000 nM	> 100000 nM	> 100000 nM	> 100000 nM
CCC(C)C(=O)OC1C(=O)OC2CC3C(C)=CC(=O)C(O)C3(C)C3C4(O)OCC23C1C(C)C4O (stereo unspecified)	> 100000 nM	481 nM	232 nM	133 nM	< 21.2 nM	158 nM	< 31 nM	659 nM	161 nM	227 nM	97.7 nM	–	< 21 nM	25 nM	7440 nM	175 nM	149 nM	205 nM	< 31.7 nM	63.4 nM
